Measured values taken from US20090312373A1, “METHODS FOR THE TREATMENT OF CANCER USING PIPERLONGUMINE AND PIPERLONGUMINE ANALOGS” (The General Hospital Corporation, priority 2008, published 2009).
Entries after “also recorded” stand apart in the source; their conditions may differ.

What was measured:
[1] = test system: patient-derived breast cancer tumor samples; assay: Histoculture Drug Response Assay (HDRA), breast; type: cell-based, human
Source text: (§1) Piperlongumine (SP2007) was compared to a variety of known anti-cancer agents in a Histoculture Drug Response Assay (HDRA). HDRA is an assay that provides a reliable approach to determine the profile of in vivo chemo-sensitivity in cancer patients. The assay allows for a three-dimensional culture, the testing of patient tumor sensitivity, the evaluation of treatment option for individual patients with solid tumor types and a high correlation to clinical drug sensitivity (Flowers J L et al., Cancer Chemother. Pharmacol. 2003 September 52 (3): 253-261). The assays were performed by Anti-cancer Inc., (San Diego, Calif.). An average of twenty samples was tested for each tumor type.

[2] = test system: patient-derived osteocarcoma samples; assay: Histoculture Drug Response Assay (HDRA), osteosarcoma; type: cell-based, human
Source text: as §1

[3] = test system: survival proteins (Bc12, Survivin, XAIP); assay: Exon gene array and Western blot of survival proteins in U2OS and EJ cells; type: cell-based, human; settings: variety of concentrations
Protocol: Downstream target genes of piperlongumine (CT-007) were identified using an human exon gene array analysis of U2OS and EJ cancer cell lines (FIG. 12). In addition, the results from the gene array analysis were confirmed by Western blot (FIG. 13; See also Example 12 below).
U2OS cells and EJ cells were exposed to piperlongumine (10 μM) and aliquots of the cells were taken at 6 and 12 hours and lysed to determine the level of Twist expression. […] HCT116 cells (p53-wt cells) were exposed to piperlongumine and aliquots of the cells were taken at 6 and 12 hours and lysed to determine the level of CDIP expression. […] U2OS cells (p53-wt cells) and EJ cells (non-functional p53) were exposed to various concentrations of piperlongumine (piper) and aliquots of the cells were lysed to determine the level of survival protein expression.

[4] = test system: EJ Human Bladder Carcinoma Cells; assay: Angiogenesis in EJ bladder carcinoma tumor bearing nude mice; type: in vivo, mouse; settings: 1.5 mg/kg i.p. every two days for 2.5 weeks
Protocol: EJ Human Bladder Carcinoma Cells (10^6 Cells) were Subcutaneously Transplanted into the back of the skin of immunodeficient nude mice (total 16 mice). After 2 weeks (tumor sizes of approximately 8-10 mm), piperlongumine (SP2007; 1.5 mg/kg) or vehicle (10% DMSO) was injected into tumor bearing mice by i.p. every two days for 2.5 weeks. The effect of piperlongumine was evaluated by opening the tumor site.

[5] = test system: normal human breast epithelial cells; assay: DNA damage markers in normal human breast epithelial cells; type: cell-based; settings: SP2007 10 μM or 20 μM
Source text: The primary breast epithelial cells obtained from patients undergoing reconstructive plastic surgery.

[6] = test system: EJ human bladder cancer cell xenografts; assay: EJ human bladder cancer xenograft in nude mice; type: in vivo, mouse
Protocol: We tested piperlongumine in colon tumor, breast, melanoma or bladder tumor xenograft-bearing mice to evaluate the anti-tumor effect of piperlongumine. We examined EJ human bladder cancer cell xenografts (non-functional p53) to evaluate anti-tumor effects. A total of 2×10^6 EJ cells or SW480 cells were implanted subcutaneously on opposite site flanks in each of six nude/nude mice in each group. When tumor masses grew to ˜5-10 mm in diameter, piperlongumine was administered intraperitoneally (28 ug per each intraperitoneal administration, total 1.2 mg/kg) every 48 hours for 12 days (6 times total).

[7] = test system: patient-derived colon cancer tumor samples; assay: Histoculture Drug Response Assay (HDRA), colon; type: cell-based, human
Source text: as §1

[8] = test system: EJ bladder carcinoma cells; assay: Persistent effects after removal of the compound in EJ cells; type: cell-based, human
Protocol: EJ bladder carcinoma cells were treated with SP2007 (P10: 10 μM and P20: 20 μM), taxol (T10: 10 nM and T20: 20 nM) or DMSO vehicle control for either 20 hrs or 3 hrs. For the 20 hrs experiment, the percentages of remaining living cells ware measured on the end of the 20 hrs treatment time point. […] For the 3 hrs experiment, cells were washed 3 times with PBS after treatment with the and incubated for another 6 hrs in growing medium without SP2007, taxol or DMSO.

Toxicity limit in mice = type: in vivo, mouse
Protocol: To avoid toxicity, piperlongumine should be used at less than 2.5 mg/kg in mice. The skilled person will know how to formulate the compounds of the invention in accordance with the solubility by selection of appropriate carriers, solubilizers, etc.

[9] = test system: Twist, N-cadherin and p120 catenin; assay: Western blot of Twist, N-cadherin and p120 catenin in EJ and U2OS cells; type: cell-based, human; settings: 10 μM and 20 μM, 20 hours
Protocol: A scheme for piperlongumine (SP2007)-mediated repression of Twist expression and its downstream targets that are involved in tumor invasion/metastasis is presented in FIG. 39A. […] U2OS and EJ cells were treated with SP2007 at two concentrations (10 μM and 20 μM) as well as with DMSO as a solvent control. After 20 hours, cell lysates were extracted and western blotting was performed against Twist, N-cadherin and p120 catenin (Zymed and Sigma Aldrich). […] Female MMTV-PyVT mice at 8-9 weeks age were chosen for the studies. When tumor sizes grew to ˜5-6 mm in diameter, SP2007 or DMSO was administered intraperitoneally (I.P., total 2.4 mg/kg of SP2007) daily for two weeks. After two weeks treatment, mice were sacrificed and mammary tumors excised and processed for histological examination.

human cancer cell lines = assay: SRB (Sulforhodamine B) staining assay in human cancer cell lines; type: cell-based
Protocol: The tumor growth inhibitory effect of piperlongumine was evaluated in a variety of human cancer cell lines. Cells were grown in ˜50-70% confluency and treated with piperlongumine and known anti-cancer agents at various concentrations (0.1-30 μM) and analyzed for cell death or viability by SRB (Sulforhodamine B) staining assay. The SRB assay is a well established assay that is used for the detection of cell death, viability or proliferation in drug screening.

Which results are given for `COc1cc(/C=C/C(=O)N2CCC=CC2=O)cc(OC)c1OC` [piperlongumine, N-(3,4,5,-trimethoxycinnamoyl)-Δ^3-piperidine-2-one]?
growth of patient-derived tumor samples [1]: inhibits growth; growth of patient-derived tumor samples [2]: inhibits growth; levels of expression of survival proteins [3]: significantly repressed; also recorded: inhibits the expression of survival proteins; blood-vessel formation at the tumor sites [4]: did not show considerable blood-vessel formation; expression of angiogenic marker VEGF (immunohistochemistry) ([4]; compared to vehicle): significantly reduced; phosphorylated gamma-H2AX, p53 and p21 [5]: does not affect; anti-tumor effect ([6]; 28 ug i.p. every 48 hours for 12 days (total 1.2 mg/kg), compared to DMSO): significant anti-tumor effects; blood vessel formation (angiogenesis) in the tumors ([6]; tumor mice): strongly inhibited; expression of apoptosis genes (p21, PUMA, Caspase 3) in tumor-mice ([6]; tumor mice): enhanced; growth of patient-derived tumor samples [7]: inhibits growth; killing of cancer cells after removal of the compound ([8]; 3 hrs treatment, washed, another 6 hrs in medium without compound): still able to kill cancer cells; percentage of remaining living cells ([8]; 20 hrs treatment, SP2007 10 and 20 μM, taxol 10 and 20 nM): No difference was observed; dose to avoid toxicity (Toxicity limit in mice): less than 2.5 mg/kg; expression of Twist, N-cadherin and p120 catenin [9]: inhibits expression; tumor cell growth inhibition compared to known anti-cancer drugs (human cancer cell lines; 0.1-30 μM, variety of human cancer cell lines): as well as or better than other well-known anti-cancer drugs; cell growth (human cancer cell lines; glioblastoma cell lines): inhibits cell growth; cell growth (human cancer cell lines; human melanoma and ovarian cancer cell lines): inhibits cell growth; cell growth (human cancer cell lines; human renal cancer cell lines): inhibits cell growth
